In ChEMBL document CHEMBL1129917, “Structure-based design of novel, dipeptide ligands targeting the pp60Src SH2 domain” (Bioorg Med Chem Lett, 1997):

Molecular target: Proto-oncogene tyrosine-protein kinase Src (Homo sapiens, UniProt P12931)
Test: Inhibition of [125I]-labeled phosphopeptide binding to a Src protein tyrosine kinase SH2 domain.

Sequence of Proto-oncogene tyrosine-protein kinase Src (P12931 2-536 limits assumed): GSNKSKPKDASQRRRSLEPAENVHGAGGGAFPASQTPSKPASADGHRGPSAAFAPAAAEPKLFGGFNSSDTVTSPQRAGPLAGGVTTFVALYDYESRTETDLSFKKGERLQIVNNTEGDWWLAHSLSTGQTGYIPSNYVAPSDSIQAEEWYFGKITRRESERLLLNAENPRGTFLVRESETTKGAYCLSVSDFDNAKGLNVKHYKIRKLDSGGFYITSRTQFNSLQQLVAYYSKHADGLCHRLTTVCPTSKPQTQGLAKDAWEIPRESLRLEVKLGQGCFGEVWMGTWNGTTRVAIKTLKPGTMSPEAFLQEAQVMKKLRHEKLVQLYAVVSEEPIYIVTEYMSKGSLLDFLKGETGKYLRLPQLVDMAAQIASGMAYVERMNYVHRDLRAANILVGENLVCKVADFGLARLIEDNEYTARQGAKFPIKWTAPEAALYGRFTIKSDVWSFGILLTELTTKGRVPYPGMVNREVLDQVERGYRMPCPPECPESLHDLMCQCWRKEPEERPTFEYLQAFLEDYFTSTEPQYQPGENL

Structure (SMILES)	IC50
CC(=O)N[C@@H](Cc1ccc(OP(=O)(O)O)cc1)C(=O)N[C@@H](CCC(=O)O)C(=O)N(CCCC(=O)O)CCCc1ccccc1	2 µM
CC(=O)N[C@@H](Cc1ccc(OP(=O)(O)O)cc1)C(=O)NCC(=O)NCCCc1ccccc1	~46 µM
CC(=O)N[C@@H](Cc1ccc(OP(=O)(O)O)cc1)C(=O)N[C@@H](CCC(=O)O)C(=O)NCCC1=CC=CC2CCCCC12 (stereo partly specified)	3.2 µM
CC(=O)N[C@@H](Cc1ccc(OP(=O)(O)O)cc1)C(=O)N[C@H](C(=O)NCCCc1ccccc1)C(C)C	~30 µM
CCCC(NC(=O)[C@H](Cc1ccc(OP(=O)(O)O)cc1)NC(C)=O)C(=O)N(CCCC(=O)O)CCCc1ccccc1 (stereo partly specified)	4.3 µM
CC(=O)N[C@@H](Cc1ccc(OP(=O)(O)O)cc1)C(=O)N[C@@H](CCC(=O)O)C(=O)N(C)CCCc1ccccc1	3.5 µM
CC(=O)N[C@@H](Cc1ccc(OP(=O)(O)O)cc1)C(=O)N[C@@H](Cc1ccc(OP(=O)(O)O)cc1)C(=O)NCCCc1ccccc1	3.9 µM
CCC[C@H](NC(=O)[C@H](Cc1ccc(OP(=O)(O)O)cc1)NC(C)=O)C(=O)NCCCc1ccccc1	12 µM
CC(=O)N[C@@H](Cc1ccc(OP(=O)(O)O)cc1)C(=O)N[C@@H](C)C(=O)NCCCc1ccccc1	15 µM
CC(=O)N[C@@H](Cc1ccc(OP(=O)(O)O)cc1)C(=O)NCC(=O)N(CCCC(=O)O)CCCc1ccccc1	14 µM
CC(=O)N[C@@H](Cc1ccc(OP(=O)(O)O)cc1)C(=O)N[C@@H](C)C(=O)N(CCCC(=O)O)CCCc1ccccc1	6.4 µM

Results, then the molecule that gave them:

IC50	Structure (SMILES)
2.3 µM	CC(=O)N[C@@H](Cc1ccc(OP(=O)(O)O)cc1)C(=O)N[C@@H](CCC(=O)O)C(=O)N[C@@H](CCC(N)=O)Cc1cccc2ccccc12
0.24 µM	CC(=O)N[C@@H](Cc1ccc(OP(=O)(O)O)cc1)C(=O)N[C@@H](Cc1ccc(OP(=O)(O)O)cc1)C(=O)N[C@@H](Cc1ccc(OP(=O)(O)O)cc1)C(N)=O
4.6 µM	CCc1ccccc1CCNC(=O)[C@H](CCC(=O)O)NC(=O)[C@H](Cc1ccc(OP(=O)(O)O)cc1)NC(C)=O
9.1 µM	CC(=O)N[C@@H](Cc1ccc(OP(=O)(O)O)cc1)C(=O)N[C@@H](CCC(=O)O)C(=O)NCCc1ccccc1
4.8 µM	CC(=O)N[C@@H](Cc1ccc(OP(=O)(O)O)cc1)C(=O)N[C@@H](CCC(=O)O)C(=O)NCCc1cccc2ccccc12
